In ChEMBL document CHEMBL1681783 (Bioorg Med Chem, 2011):

Assays:
[1] = species: Rattus norvegicus; experiment: Inhibition of cholesterol synthesis in rat hepatic cells; assay type: functional, cell-based
[2] = biological target: T1, Squalene synthase (Homo sapiens, UniProt P37268)
T1 sequence (P37268 whole entry): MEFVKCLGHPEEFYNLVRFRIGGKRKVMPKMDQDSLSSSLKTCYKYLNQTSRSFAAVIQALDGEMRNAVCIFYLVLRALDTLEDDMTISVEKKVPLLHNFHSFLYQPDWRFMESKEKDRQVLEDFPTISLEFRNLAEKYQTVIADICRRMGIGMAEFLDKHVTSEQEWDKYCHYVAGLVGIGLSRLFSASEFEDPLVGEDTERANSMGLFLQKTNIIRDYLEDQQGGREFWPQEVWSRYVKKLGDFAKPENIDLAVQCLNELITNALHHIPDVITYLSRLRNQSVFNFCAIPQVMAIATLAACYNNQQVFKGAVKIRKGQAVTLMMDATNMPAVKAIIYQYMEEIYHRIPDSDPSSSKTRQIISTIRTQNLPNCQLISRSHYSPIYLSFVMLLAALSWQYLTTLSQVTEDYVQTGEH
Description: Inhibition of squalene synthase

[3] = Lipophilicity, log P of the compound; assay type: physicochemical; details: octanol/water

Row | SMILES | IC50 [1] [nM] | IC50 [2] [nM] | logP [3]
1 | CCOC(=O)CN1CCN(C(=O)CCC(=O)N(CC(C)(C)C)c2ccc(Cl)cc2C(O)c2ccccc2Cl)CC1 (configuration not stated) | 1400 | 7.9 | –
2 | CCOC(=O)C1CCN(C(=O)CCC(=O)N(CC(C)(C)C)c2ccc(Cl)cc2C(O)c2cccc3c2OCCO3)CC1 (configuration not stated) | – | 10 | –
3 | CCOC(=O)C1CCCN(C(=O)CCC(=O)N(CC(C)(C)C)c2ccc(Cl)cc2C(O)c2ccccc2OCC)C1 (configuration not stated) | – | > 600 | –
4 | CCOC(=O)C1CCCN(C(=O)CCC(=O)N(CC(C)(C)C)c2ccc(Cl)cc2C(O)c2ccccc2Cl)C1 (configuration not stated) | – | 410 | –
5 | CCOC(=O)C1CCCN(C(=O)CCC(=O)N(CC(C)(C)C)c2ccc(Cl)cc2C(O)c2ccccc2OC)C1 (configuration not stated) | – | 2.6 | –
6 | CCOC(=O)C1CCN(C(=O)CCCC(=O)N(CC(C)(C)C)c2ccc(Cl)cc2C(O)c2ccccc2Cl)CC1 (configuration not stated) | – | > 6000 | –
7 | CCOC(=O)C1CCN(C(=O)CC(=O)N(CC(C)(C)C)c2ccc(Cl)cc2C(O)c2ccccc2Cl)CC1 (configuration not stated) | – | > 600 | –
8 | CCOC(=O)C1CCCN(C(=O)CCC(=O)N(CC(C)(C)C)c2ccc(Cl)cc2C(O)c2cccc(OC)c2OC)C1 (configuration not stated) | – | 1.3 | –
9 | CC(C)(C)CN(C(=O)CCC(=O)N1CCC(C(N)=O)CC1)c1ccc(Cl)cc1C(O)c1ccccc1Cl (configuration not stated) | – | 280 | –
10 | COC(=O)CCC(=O)N(CC(C)(C)C)c1ccc(Cl)cc1C(O)c1ccccc1Cl (configuration not stated) | – | 1700 | –
11 | CC(C)(C)CN(C(=O)CCC(=O)N1CCCC(C(=O)O)C1)c1ccc(Cl)cc1C(O)c1ccccc1 (configuration not stated) | – | – | 2.42
12 | COc1cccc(C(O)c2cc(Cl)ccc2N(CC(C)(C)C)C(=O)CCC(=O)N2CCC(C(=O)O)CC2)c1 (configuration not stated) | – | > 600 | –
13 | CCOC(=O)C1CCN(C(=O)CCC(=O)N(CC(C)(C)C)c2ccc(Cl)cc2Cc2ccccc2Cl)CC1 | – | 650 | –
14 | CCOC(=O)C1CCCN(C(=O)CCC(=O)N(CC(C)(C)C)c2ccc(Cl)cc2C(O)c2ccc(F)cc2Cl)C1 (configuration not stated) | – | > 600 | –
15 | CCOC(=O)C1CCN(C(=O)CCC(=O)N(CC(C)(C)C)c2ccc(Cl)cc2C(O)c2ccccc2)CC1 (configuration not stated) | – | 770 | –
16 | COc1cccc(C(O)c2cc(Cl)ccc2N(CC(C)(C)C)C(=O)CCC(=O)N2CCCC(C(=O)O)C2)c1OC (configuration not stated) | 1500 | 2 | 2.25

Row | SMILES | IC50 [1] [nM] | IC50 [2] [nM] | logP [3]
17 | CCCCNC(=O)C1CCN(C(=O)CCC(=O)N(CC(C)(C)C)c2ccc(Cl)cc2C(O)c2ccccc2Cl)CC1 (configuration not stated) | 2000 | 1.6 | –
18 | CCOC(=O)C1CCCN(C(=O)CCC(=O)N(CC(C)(C)C)c2ccc(Cl)cc2C(O)c2cccc(OC)c2)C1 (configuration not stated) | – | > 600 | –
19 | CC(C)(C)CN(C(=O)CCC(=O)N1CCC(C(=O)O)CC1)c1ccc(Cl)cc1C(O)c1cccc(F)c1Cl (configuration not stated) | 920 | 17 | –
20 | CCOc1ccccc1C(O)c1cc(Cl)ccc1N(CC(C)(C)C)C(=O)CCC(=O)N1CCC(C(=O)O)CC1 (configuration not stated) | – | > 600 | –
21 | CC(C)(C)CN(C(=O)CCC(=O)N1CCCC(C(=O)O)C1)c1ccc(Cl)cc1C(O)c1cccc2c1OCCO2 (configuration not stated) | 170 | 6.8 | 1.87
22 | CC(C)(C)CN(C(=O)CCC(=O)N1CCC(C(=O)O)CC1)c1ccc(Cl)cc1C(O)c1ccccc1F (configuration not stated) | > 10000 | 1700 | –
23 | CC(C)(C)CN(C(=O)CCC(=O)N1CCC(C(=O)O)CC1)c1ccc(Cl)cc1C(O)c1cc(F)ccc1Cl (configuration not stated) | – | > 600 | –
24 | CN(C)C(=O)C1CCN(C(=O)CCC(=O)N(CC(C)(C)C)c2ccc(Cl)cc2C(O)c2ccccc2Cl)CC1 (configuration not stated) | – | 97 | –
25 | CC(C)(C)CN(C(=O)CCC(=O)N1CCCC(C(=O)O)C1)c1ccc(Cl)cc1C(O)c1cc(F)ccc1Cl (configuration not stated) | – | > 600 | 2.8
26 | CC(C)(C)CN(C(=O)CCC(=O)N1CCN(S(C)(=O)=O)CC1)c1ccc(Cl)cc1C(O)c1ccccc1Cl (configuration not stated) | – | 260 | –
27 | CC(C)(C)CN(C(=O)CCC(=O)N1CCC(C(=O)O)CC1)c1ccc(Cl)cc1C(O)c1ccc(F)cc1Cl (configuration not stated) | – | > 600 | –
28 | CCOC(=O)N1CCN(C(=O)CCC(=O)N(CC(C)(C)C)c2ccc(Cl)cc2C(O)c2ccccc2Cl)CC1 (configuration not stated) | – | 2.3 | –
29 | CCOC(=O)C1CCCN(C(=O)CCC(=O)N(CC(C)(C)C)c2ccc(Cl)cc2C(O)c2ccccc2F)C1 (configuration not stated) | – | > 600 | –
30 | CCCN(C(=O)CCC(=O)N1CCC(C(=O)OCC)CC1)c1ccc(Cl)cc1C(O)c1ccccc1Cl (configuration not stated) | – | 600 | –
31 | CCOC(=O)C1CCCN(C(=O)CCC(=O)N(CC(C)(C)C)c2ccc(Cl)cc2C(O)c2cccc(F)c2Cl)C1 (configuration not stated) | – | 28 | –
32 | CC(C)(C)CN(C(=O)CCC(=O)NCC1CCCCC1)c1ccc(Cl)cc1C(O)c1ccccc1Cl (configuration not stated) | 2600 | 220 | –

More lines, now with the values ahead:

Row | IC50 [1] [nM] | IC50 [2] [nM] | logP [3] | SMILES
33 | – | 190 | 3.28 | CC(C)(C)CN(C(=O)CCC(=O)N1CCCC(C(=O)O)C1)c1ccc(Cl)cc1C(O)c1ccc(F)cc1Cl (configuration not stated)
34 | 200 | 290 | 2.52 | CC(C)(C)CN(C(=O)CCC(=O)N1CCCC(C(=O)O)C1)c1ccc(Cl)cc1C(O)c1ccccc1F (configuration not stated)
35 | 1600 | 3.7 | – | CC(C)NC(=O)C1CCN(C(=O)CCC(=O)N(CC(C)(C)C)c2ccc(Cl)cc2C(O)c2ccccc2Cl)CC1 (configuration not stated)
36 | 270 | 20 | 2.98 | CC(C)(C)CN(C(=O)CCC(=O)N1CCCC(C(=O)O)C1)c1ccc(Cl)cc1[C@H](O)c1ccccc1Cl (some centres not stated)
37 | – | 410 | – | CCOC(=O)C1CCN(C(=O)CCC(=O)N(CC(C)(C)C)c2ccc(Cl)cc2C(O)c2ccccc2OCC)CC1 (configuration not stated)
38 | – | 1.1 | – | CC(C)(C)CN(C(=O)CCC(=O)N1CCN(C(=O)OCc2ccccc2)CC1)c1ccc(Cl)cc1C(O)c1ccccc1Cl (configuration not stated)
39 | 1300 | 8.4 | 3 | CC(C)(C)CN(C(=O)CCC(=O)N1CCCC(C(=O)O)C1)c1ccc(Cl)cc1C(O)c1cccc(F)c1Cl (configuration not stated)
40 | – | > 600 | – | CCOC(=O)C1CCCN(C(=O)CCC(=O)N(CC(C)(C)C)c2ccc(Cl)cc2C(O)c2cc(F)ccc2Cl)C1 (configuration not stated)
41 | 250 | 130 | – | CC(C)(C)CN(C(=O)CCC(=O)N1CCC(C(=O)O)CC1)c1ccc(Cl)cc1C(O)c1ccccc1Cl (configuration not stated)
42 | – | 6500 | – | CC(C)(C)CN(C(=O)CCC(=O)O)c1ccc(Cl)cc1C(O)c1ccccc1Cl (configuration not stated)
43 | – | 7.2 | – | CCOC(=O)C1CCN(C(=O)CCC(=O)N(CC(C)(C)C)c2ccc(Cl)cc2C(O)c2cccc(F)c2Cl)CC1 (configuration not stated)
44 | – | 1.1 | – | CCOC(=O)C1CCN(C(=O)CCC(=O)N(CC(C)(C)C)c2ccc(Cl)cc2C(O)c2ccccc2OC)CC1 (configuration not stated)
45 | – | 0.45 | – | CCOC(=O)C1CCN(C(=O)CCC(=O)N(CC(C)(C)C)c2ccc(Cl)cc2C(O)c2ccccc2F)CC1 (configuration not stated)
46 | – | 1.1 | – | CCOC(=O)C1CCN(C(=O)CCC(=O)N(CC(C)(C)C)c2ccc(Cl)cc2C(O)c2cccc(OC)c2OC)CC1 (configuration not stated)
47 | 900 | 1.3 | – | CNC(=O)C1CCN(C(=O)CCC(=O)N(CC(C)(C)C)c2ccc(Cl)cc2C(O)c2ccccc2Cl)CC1 (configuration not stated)
48 | 230 | 7 | – | CC(C)(C)CN(C(=O)CCC(=O)N1CCC(C(=O)O)CC1)c1ccc(Cl)cc1C(O)c1cccc2c1OCCO2 (configuration not stated)
49 | – | 2.4 | – | CCNC(=O)C1CCN(C(=O)CCC(=O)N(CC(C)(C)C)c2ccc(Cl)cc2C(O)c2ccccc2Cl)CC1 (configuration not stated)
50 | – | 2 | – | CCOC(=O)C1CCN(C(=O)CCC(=O)N(CC(C)(C)C)c2ccc(Cl)cc2C(O)c2ccc(F)cc2Cl)CC1 (configuration not stated)
51 | – | 2100 | – | CC(C)(C)CN(C(=O)CCC(=O)N1CCNCC1)c1ccc(Cl)cc1C(O)c1ccccc1Cl (configuration not stated)
52 | – | > 6000 | – | CCOC(=O)C1CCN(C(=O)CCC(=O)N(CC(C)(C)C)c2ccc(Cl)cc2CO)CC1
53 | 600 | 1.7 | – | COc1ccccc1C(O)c1cc(Cl)ccc1N(CC(C)(C)C)C(=O)CCC(=O)N1CCC(C(=O)O)CC1 (configuration not stated)
54 | – | 210 | – | CCOC(=O)C1CCN(C(=O)CCC(=O)N(CC(C)(C)C)c2ccc(Cl)cc2C(O)c2cccc(OC)c2)CC1 (configuration not stated)
55 | – | 13 | – | CCOC(=O)C1CCCN(C(=O)CCC(=O)N(CC(C)(C)C)c2ccc(Cl)cc2C(O)c2cccc3c2OCCO3)C1 (configuration not stated)
56 | – | > 600 | 2.35 | COc1cccc(C(O)c2cc(Cl)ccc2N(CC(C)(C)C)C(=O)CCC(=O)N2CCCC(C(=O)O)C2)c1 (configuration not stated)
57 | – | > 600 | – | CCOC(=O)C1CCN(C(=O)CCC(=O)N(CC(C)(C)C)c2ccc(Cl)cc2C(O)c2cc(F)ccc2Cl)CC1 (configuration not stated)
58 | 1600 | 2.8 | – | COc1cccc(C(O)c2cc(Cl)ccc2N(CC(C)(C)C)C(=O)CCC(=O)N2CCC(C(=O)O)CC2)c1OC (configuration not stated)
59 | – | > 600 | 3.32 | CCOc1ccccc1C(O)c1cc(Cl)ccc1N(CC(C)(C)C)C(=O)CCC(=O)N1CCCC(C(=O)O)C1 (configuration not stated)
60 | – | 21000 | – | CCOC(=O)C1CCN(C(=O)CCC(=O)N(C)c2ccc(Cl)cc2C(O)c2ccccc2Cl)CC1 (configuration not stated)
61 | 84 | – | 2.81 | COc1ccccc1C(O)c1cc(Cl)ccc1N(CC(C)(C)C)C(=O)CCC(=O)N1CCCC(C(=O)O)C1 (configuration not stated)
